≈ marks a conversion by molar mass, not a printed value. Calls of active or inactive are those of the source. The rule behind the calls is not given here.
Columns and labels:
Leishmania infantum = experiment: Leishmanicidal activity against promastigote form of Leishmania infantum PB75 after 48 hrs by modified colorimetric method; type: functional; settings: PB75, 48 h
[1] = Cytotoxicity against CHO cells assessed as cell viability after 48 hrs by MTT colorimetric assay; type: cell-based, Cricetulus griseus; settings: chinese hamster
Trypanosoma cruzi [2] = experiment: Antitrypanosomal activity against epimastigote form of Trypanosoma cruzi Y at 1 to 100 ug/ml after 72 hrs by modified MTT colorimetric assay; type: functional, organism-based
CHO = experiment: Cytotoxicity against CHO cells assessed as cell viability at 1 to 100 ug/ml after 48 hrs by MTT colorimetric assay; type: cell-based, Cricetulus griseus; settings: chinese hamster
Trypanosoma cruzi [3] = experiment: Antitrypanosomal activity against epimastigote form of Trypanosoma cruzi Y after 72 hrs by modified MTT colorimetric assay; type: functional

| SMILES | GI50 (Leishmania infantum) [µg/mL] | GI50 at 48 h [1] [µg/mL] | further results |
| --- | --- | --- | --- |
| CCCC(=O)N1c2c(O)cccc2[C@]23CCN4CC[C@H](C[C@H]12)C1=CCO[C@]143 | 52.2 (≈ 142 µM) |  |  |
| C/C=C1/C(=O)[C@@]23CCN(C)CC[C@H]1C[C@@H]2N(C(C)=O)c1c3ccc(OC)c1O | > 100 |  |  |
| CC(=O)N1c2c(O)cccc2[C@]23CCN4CC[C@H](C[C@H]12)C1=CCO[C@]143 [GEISSOSPERMIDINE] | > 100 |  |  |
| C/C=C1\C(=O)[C@@]23CCN(C)CC[C@H]1C[C@@H]2N(C(C)=O)c1c3ccc(OC)c1O | > 100 |  |  |
| CC1CS(=O)(=O)CCN1/N=C/c1ccc([N+](=O)[O-])o1 (stereo not drawn) [NIFURTIMOX] |  | 13.9 (≈ 48.4 µM) |  |
| CCc1ccc2c3[nH]c4ccccc4c3cc[n+]2c1.[Cl-] [FLAVOPEREIRINE] |  |  | Activity (Trypanosoma cruzi [2]): Active; Activity (CHO): Toxic |
| CC[C@@]12CCCN3CC[C@]4(c5cccc(O)c5N(C(C)=O)[C@@H]4CC1)[C@H]32 | 7.7 (≈ 22.6 µM) | 16.7 (≈ 49.1 µM) | GI50 (Trypanosoma cruzi [3]): 41.7 µg/mL (≈ 122 µM) |
| COc1cc(O)c2c(c1)[C@]13CCN4CC[C@H](C[C@@H]1N2C(C)=O)C1=CCO[C@]143 | > 100 |  |  |
| COc1ccc2c(c1O)N(C(C)=O)[C@H]1C[C@@H]3CCN(C)CC[C@@]21C(=O)[C@]31O[C@H]1C | > 100 |  |  |
| C[C@@H]1[C@H](O)[C@@H](C)/C=C/C=C/C=C/C=C/C=C/C=C/C=C/[C@H](O[C@@H]2O[C@H](C)[C@@H](O)[C@H](N)[C@@H]2O)C[C@@H]2O[C@](O)(C[C@@H](O)C[C@@H](O)[C@H](O)CC[C@@H](O)C[C@@H](O)CC(=O)O[C@H]1C)C[C@H](O)[C@H]2C(=O)O [AMPHOTERICIN B] |  | 10.3 (≈ 11.1 µM) |  |
